# Experimental data taken from ChEMBL document CHEMBL3046355, “Design, synthesis, and herbicidal activities of novel 2-cyanoacrylates containing isoxazole moieties” (2010).
# Tests used:
# Type in all cases: functional
# [1] = tested on: Brassica napus; assay: Herbicidal activity against Brassica napus (oilseed rape) assessed as inhibition of weed growth at 375 g/ha using postemergence treatment protocol; conditions: post-emergence
# [2] = tested on: Amaranthus retroflexus; assay: Herbicidal activity against Amaranthus retroflexus assessed as inhibition of weed growth at 150 g/ha using postemergence treatment protocol; conditions: post-emergence
# [3] = tested on: Brassica napus; assay: Herbicidal activity against Brassica napus (oilseed rape) assessed as inhibition of weed growth at 1.5 kg/ha using preemergence treatment protocol; conditions: pre-emergence
# [4] = tested on: Amaranthus retroflexus; assay: Herbicidal activity against Amaranthus retroflexus assessed as inhibition of weed growth at 1.5 kg/ha using postemergence treatment protocol; conditions: post-emergence
# [5] = tested on: Amaranthus retroflexus; assay: Herbicidal activity against Amaranthus retroflexus assessed as inhibition of weed growth at 750 g/ha using postemergence treatment protocol; conditions: post-emergence
# [6] = tested on: Echinochloa crus-galli; assay: Herbicidal activity against Echinochloa crus-galli (barnyard grass) assessed as inhibition of weed growth at 1.5 kg/ha using preemergence treatment protocol; conditions: pre-emergence
# [7] = tested on: Digitaria sanguinalis; assay: Herbicidal activity against Digitaria sanguinalis (hairy crabgrass) assessed as inhibition of weed growth at 1.5 kg/ha using post-emergence treatment protocol
# [8] = tested on: Amaranthus retroflexus; assay: Herbicidal activity against Amaranthus retroflexus assessed as inhibition of weed growth at 75 g/ha using postemergence treatment protocol; conditions: post-emergence
# [9] = tested on: Brassica napus; assay: Herbicidal activity against Brassica napus (oilseed rape) assessed as inhibition of weed growth at 1.5 kg/ha using postemergence treatment protocol; conditions: post-emergence
# [10] = tested on: Brassica napus; assay: Herbicidal activity against Brassica napus (oilseed rape) assessed as inhibition of weed growth at 75 g/ha using postemergence treatment protocol; conditions: post-emergence
# [11] = tested on: Amaranthus retroflexus; assay: Herbicidal activity against Amaranthus retroflexus assessed as inhibition of weed growth at 1.5 kg/ha using preemergence treatment protocol; conditions: pre-emergence
# [12] = tested on: Brassica napus; assay: Herbicidal activity against Brassica napus (oilseed rape) assessed as inhibition of weed growth at 150 g/ha using postemergence treatment protocol; conditions: post-emergence
# [13] = tested on: Brassica napus; assay: Herbicidal activity against Brassica napus (oilseed rape) assessed as inhibition of weed growth at 750 g/ha using postemergence treatment protocol; conditions: post-emergence
# [14] = tested on: Amaranthus retroflexus; assay: Herbicidal activity against Amaranthus retroflexus assessed as inhibition of weed growth at 375 g/ha using postemergence treatment protocol; conditions: post-emergence
# [15] = tested on: Digitaria sanguinalis; assay: Herbicidal activity against Digitaria sanguinalis (hairy crabgrass) assessed as inhibition of weed growth at 1.5 kg/ha using pre-emergence treatment protocol
# [16] = tested on: Echinochloa crus-galli; assay: Herbicidal activity against Echinochloa crus-galli (barnyard grass) assessed as inhibition of weed growth at 1.5 kg/ha using postemergence treatment protocol; conditions: post-emergence
Compound,inhibition at 375 g/ha [1] [%],inhibition at 150 g/ha [2] [%],inhibition at 1500 g/ha [3] [%],inhibition at 1500 g/ha [4] [%],inhibition at 750 g/ha [5] [%],inhibition at 1500 g/ha [6] [%],inhibition at 1500 g/ha [7] [%],inhibition at 75 g/ha [8] [%],inhibition at 1500 g/ha [9] [%],inhibition at 75 g/ha [10] [%],inhibition at 1500 g/ha [11] [%],inhibition at 150 g/ha [12] [%],inhibition at 750 g/ha [13] [%],inhibition at 375 g/ha [14] [%],inhibition at 1500 g/ha [15] [%],inhibition at 1500 g/ha [16] [%]
CCOCCOC(=O)/C(C#N)=C(\NCc1cc(-c2ccc(OC)cc2)no1)C(C)C,100,93.5,40.9,100,100,0,14.3,65.2,100,82.5,45.2,100,100,100,0,0
CCOCCOC(=O)/C(C#N)=C(\NCc1cc(-c2ccccc2OC)no1)SC,15.8,,19,90.6,16,0,52.3,,100,,47.8,,43.8,0,17.3,52
CCOCCOC(=O)/C(C#N)=C(\NCc1cc(-c2ccccc2OC)no1)C(C)C,100,23.9,17.4,95.1,100,0,82,17.4,100,17.1,44.9,27,100,100,5.5,56.4
CCOCCOC(=O)/C(C#N)=C(\NCc1cc(-c2ccc(OC)cc2)no1)SC,57.5,,10,100,87,0,32.5,,100,,0,,94.6,34.8,0,0
CCOCCOC(=O)/C(C#N)=C(\NCc1cc(-c2ccccc2Cl)no1)C(C)C,100,94.4,,100,98.3,0,24,77,100,100,0,100,100,96,0,47.2
CCOCCOC(=O)/C(C#N)=C(\NCc1cc(-c2ccc(Cl)cc2)no1)SC,0,,28.4,89.9,22,0,72.7,,100,,23.1,,0,4,14.8,58.2
CCOCCOC(=O)/C(C#N)=C(\NCc1cc(-c2ccc(Cl)cc2)no1)C(C)C,100,26.1,10.6,100,100,0,64.1,8.7,100,29.6,68.7,36.3,100,100,0,33
CCOCCOC(=O)/C(C#N)=C(\NCc1cc(-c2ccccc2)no1)SC,17.8,,15.8,100,34,0,55.5,,100,,67.7,,100,7,0,57
CCOCCOC(=O)/C(C#N)=C(\NCc1ccc(Cl)nc1)SC,100,0,47.6,100,87.9,3.6,54.1,0,100,80.9,32.4,100,100,18.7,18.8,55.3
